# Measurements as given in patent US10774064B2 (Cadent Therapeutics, Inc., priority 2016, dated 2020).
# Biological target: T1, small-conductance Ca2+-activated K+ channels (SK channels, subtype 2) (Homo sapiens, UniProt Q9H2S1)
# T1 construct: expressed in transfected cells; host or cells: HEK293
# Assay: whole-cell patch-clamp of ionic current through SK2 channels in HEK293 cells (SC100)
# Format: cell-based
# Settings: potency against SK2 channels
# Procedure, shortened: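 SC100, the concentration doubling basal current (a 100% increase), was taken from SK2 currents recorded by whole-cell patch-clamp in SK2-expressing HEK293 cells.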
row,SMILES,Measured SK2 SC100 [µM]
1,"Cc1ccn(-c2nc(NC3CCC(F)(F)CC3)cc(N3CCOCC3)n2)n1 [Compound 359, N-(4,4-difluorocyclohexyl)-2-(3-methyl-1H-pyrazol-1-yl)-6-morpholinopyrimidin-4-amine]",0.5

# Same assay, conditions: whole-cell patch-clamp, HEK293 cells expressing SK2 channels; concentration that increases the basal current by 100%
row,SC100 (μM),SMILES
1,++ (++ means 200 nM-1000 nM),Cc1ccn(-c2cc(N3CCOC(C(C)(C)O)C3)nc(NC3CCC(F)(F)CC3)n2)n1 (stereo not shown) [NSSy6958]
2,+++ (+++ means <200 nM),"COC(=O)N1CCC(c2cc(-n3ccc(C)n3)nc(NC3CCC(F)(F)CC3)n2)CC1 [NSSy6981, methyl 4-(2-((4,4-difluorocyclohexyl)amino)-6-(3-methyl-1H-pyrazol-1-yl)pyrimidin-4-yl)piperidine-1-carboxylate]"
3,+++ (+++ means <200 nM),COC(=O)N1CCC(c2cc(NC3CCC(F)(F)CC3)nc(-n3ccc(C)n3)n2)CC1 [NSSy6982]
4,++ (++ means 200 nM-1000 nM),"Cc1ccn(-c2cc(N3CCOC(CO)C3)nc(NC3CCC(F)(F)CC3)n2)n1 (stereo not shown) [NSSy6986, (4-(2-((4,4-difluorocyclohexyl)amino)-6-(3-methyl-1H-pyrazol-1-yl)pyrimidin-4-yl)morpholin-2-yl)methanol]"
5,+ (+ means >1 uM),"CC(=O)N1CCN(c2cc(-c3cccc(C)n3)nc(NC3CCC(F)(F)CC3)n2)CC1 [NSSy6989, 1-(4-(2-((4,4-difluorocyclohexyl)amino)-6-(6-methylpyridin-2-yl)pyrimidin-4-yl)piperazin-1-yl)ethan-1-one]"
6,++ (++ means 200 nM-1000 nM),COc1ccn(-c2nc(NC3CCC(F)(F)CC3)cc(N3CCOCC3)n2)n1 [NSSy6993]
7,++ (++ means 200 nM-1000 nM),Cc1nn(-c2nc(NC3CCC(F)(F)CC3)cc(N3CCOCC3)n2)c(C)c1F [NSSy7011]
8,+ (+ means >1 uM),Cc1cc(NC2CCC(F)(F)CC2)nc(-n2ccc(-c3ccccc3)n2)n1 [NSSy7028]
9,+ (+ means >1 uM),FC1(F)CCC(Nc2cc(N3CCOCC3)nc(-n3ccc(-c4ccccc4)n3)n2)CC1 [NSSy7034]
10,+ (+ means >1 uM),COc1cnc(-n2nc(C)c(F)c2C)nc1NC1CCC(F)(F)CC1 [NSSy7042]
11,+ (+ means >1 uM),"Cc1nc(NC2CCC(F)(F)CC2)nc(-n2ccc(C3CC3)n2)n1 [NSSy7043, 4-(3-cyclopropyl-1H-pyrazol-1-yl)-N-(4,4-difluorocyclohexyl)-6-methyl-1,3,5-triazin-2-amine]"
12,+ (+ means >1 uM),COc1cnc(-n2ccc(C)n2)nc1NC1CCC(F)(F)CC1 [NSSy7055]
13,+ (+ means >1 uM),COc1cnc(-n2ccc(C3CC3)n2)nc1NC1CCC(F)(F)CC1 [NSSy7063]
14,++ (++ means 200 nM-1000 nM),"Cc1ccn(-c2cc(C(O)Cc3cnnn3C)cc(NC3CCC(F)(F)CC3)n2)n1 (stereo not shown) [NSSy7065, 1-(2-((4,4-difluorocyclohexyl)amino)-6-(3-methyl-1H-pyrazol-1-yl)pyridin-4-yl)-2-(1-methyl-1H-1,2,3-triazol-5-yl) ethan-1-ol]"

# More lines, now with the values behind:
row,SMILES,SC100 (μM)
1,"CC(=O)N1CCN(c2cc(-n3ccc(O)n3)nc(NC3CCC(F)(F)CC3)n2)CC1 [NSSy6972, 1-(4-(2-((4,4-difluorocyclohexyl)amino)-6-(3-hydroxy-1H-pyrazol-1-yl)pyrimidin-4-yl)piperazin-1-yl) ethan-1-one]",+ (+ means >1 uM)
2,"COc1ccn(-c2nc(C)cc(NC3CCC(F)(F)CC3)n2)n1 [NSSy6994, N-(4,4-difluorocyclohexyl)-2-(3-methoxy-1H-pyrazol-1-yl)-6-methylpyrimidin-4-amine]",++ (++ means 200 nM-1000 nM)
3,Cc1cc(NC2CCC(F)(F)CC2)nc(-n2ccc(C3(C)CC3)n2)n1 [NSSy7012],+ (+ means >1 uM)
4,FC1(F)CCC(Nc2cc(N3CCOCC3)nc(-n3ccc(Br)n3)n2)CC1 [NSSy7021],+++ (+++ means <200 nM)
5,"Cc1cc(NC2CCC(F)(F)CC2)nc(-n2ccc(O)n2)n1 [NSSy7027, 1-(4-((4,4-difluorocyclohexyl)amino)-6-methylpyrimidin-2-yl)-1H-pyrazol-3-ol]",+ (+ means >1 uM)
6,COc1cnc(-n2nc(C)cc2C)nc1NC1CCC(F)(F)CC1 [NSSy7031],+ (+ means >1 uM)
7,"Cc1cc(C)n(-c2cc(C(O)Cc3cnn(C)n3)cc(NC3CCC(F)(F)CC3)n2)n1 (stereo not shown) [NSSy7053, 1-(2-((4,4-difluorocyclohexyl)amino)-6-(3,5-dimethyl-1H-pyrazol-1-yl)pyridin-4-yl)-2-(2-methyl-2H-1,2,3-triazol-4-yl) ethan-1-ol]",++ (++ means 200 nM-1000 nM)
8,"Cc1cc(NC2CCC(F)(F)CC2)nc(-n2ccc(OC(F)F)n2)n1 [NSSy7059, N-(4,4-difluorocyclohexyl)-2-(3(difluoromethoxy)-1H-pyrazol-1-yl)-6-methylpyrimidin-4-amine]",++ (++ means 200 nM-1000 nM)
9,COc1cc(NC2CCC(F)(F)CC2)nc(-n2nc(C)c(F)c2C)n1 [NSSy7062],++ (++ means 200 nM-1000 nM)
10,Cc1ccn(-c2cc(C(O)Cc3cnn(C)n3)cc(NC3CCC(F)(F)CC3)n2)n1 (stereo not shown) [NSSy7064],++ (++ means 200 nM-1000 nM)
11,"Cc1ccn(-c2cc(C(O)Cc3cn(C)nn3)cc(NC3CCC(F)(F)CC3)n2)n1 (stereo not shown) [NSSy7079, 1-(2-((4,4-difluorocyclohexyl)amino)-6-(3-methyl-1H-pyrazol-1-yl)pyridin-4-yl)-2-(1-methyl-1H-1,2,3-triazol-4-yl)ethan-1-ol]",++ (++ means 200 nM-1000 nM)
12,"Oc1ccn(-c2nc(NC3CCC(F)(F)CC3)cc(N3CCOCC3)n2)n1 [NSSy7087, 1-(4-((4,4-difluorocyclohexyl)amino)-6-morpholinopyrimidin-2-yl)-1H-pyrazol-3-ol]",+ (+ means >1 uM)

# Tested on: not listed separately
# Assay: brain concentration by mass spectrometry from brains harvested after tremor recording; free brain concentration and % SK2 SC100
# Format: in vivo, Male Sprague Dawley rats
# Settings: male, Sprague Dawley, rat, oral, 30 mg/Kg, CFB=CMB×BFF, read-out: Calculated Free Brain Concentration
# Description: The amount of free compound is then expressed in terms of its potency against the SK2 channel as follows: % SK2 SC100=CFB/SK2 SC100×100, where SK2 SC100 (Table 3, “SK2 SC100”) is the measured value of potency of the compound against SK2 channels and % SK2 SC100 (Table 3, “% SK2 SC100”) is the free brain concentration (CFB) normalized to SK2 SC100. Thus the % SK2 SC100 gives a measure of the degree to which each of the compounds is modulating SK2 channels regardless of differences in potency or exposure. Values are given in […]
row,SMILES,concentration at 90 min [nM]
1,"Cc1ccn(-c2nc(NC3CCC(F)(F)CC3)cc(N3CCOCC3)n2)n1 [Compound 359, N-(4,4-difluorocyclohexyl)-2-(3-methyl-1H-pyrazol-1-yl)-6-morpholinopyrimidin-4-amine]",80

# Same assay, conditions: male, Sprague Dawley, rat, oral, 30 mg/Kg, brains harvested immediately following tremor recording, mass spectrometry, at minimally efficacious dose, read-out: Measured Brain Concentration
row,SMILES,concentration at 90 min [nM]
1,"Cc1ccn(-c2nc(NC3CCC(F)(F)CC3)cc(N3CCOCC3)n2)n1 [Compound 359, N-(4,4-difluorocyclohexyl)-2-(3-methyl-1H-pyrazol-1-yl)-6-morpholinopyrimidin-4-amine]",1300

# Tested on: harmaline induced tremor
# Assay: harmaline induced tremor in rats
# Format: in vivo, Male Sprague Dawley rats
# Settings: 30 mg/Kg oral, 30 minutes prior to harmaline injection; FIG. 1
# Experimental: Immediately following harmaline injection, animals were placed in the tremor quantification apparatus and tremor events were quantified for 60 minutes. A tremor event signal was generated when a small metal transmitter band fitted to the right forepaw of the animal moved within the electromagnetic field generated by a loop antenna within the testing apparatus. Outputs from the amplifier were digitized at a sampling rate of 1,000 Hz and the signal was processed and analyzed using LabView software (National Instruments). To minimize signal from ambulatory and grooming behavior, the signal was filtered with a 128-ms nonweigthed moving average filter, and events with amplitudes >0.5 V and lasting >300 ms in duration were counted as a tremor event. Data were analyzed in one-minute bins over the course of the test and presented as the sum of tremor events over the entire 60 minute test.
row,SMILES,inhibition of tremors (sum of tremor events over 60 minutes)
1,"Cc1ccn(-c2nc(NC3CCC(F)(F)CC3)cc(N3CCOCC3)n2)n1 [Compound 359, N-(4,4-difluorocyclohexyl)-2-(3-methyl-1H-pyrazol-1-yl)-6-morpholinopyrimidin-4-amine]",significant inhibition of tremors

# Same assay, conditions: oral administration 30 minutes prior to harmaline injection; rats
row,SMILES,Minimally Efficacious Dose [mg/kg]
1,"Cc1ccn(-c2nc(NC3CCC(F)(F)CC3)cc(N3CCOCC3)n2)n1 [Compound 359, N-(4,4-difluorocyclohexyl)-2-(3-methyl-1H-pyrazol-1-yl)-6-morpholinopyrimidin-4-amine]",30
